The target in assay [1] is Cyclin-dependent kinase 13/Cyclin-K (Homo sapiens, UniProt Q14004). In words: Inhibition of CDK13/Cyclin K (unknown origin) preincubated for 10 mins followed by substrate and ATP addition measured after 200 mins by ADP-Glo luminescence assay. The assay is classed as protein-complex assay.
A further assay deals with CDK12/Cyclin K (Homo sapiens, UniProt Q9NYV4). Put plainly: Inhibition of CDK12/Cyclin K (unknown origin) preincubated for 10 mins followed by substrate and ATP addition measured after 200 mins by ADP-Glo luminescence assay. The assay is classed as protein-complex assay. On the technique in general: ADP-Glo first removes unused ATP, then detects ADP through luciferase.

The subject of the next assay is BT-474. Put plainly: Cytotoxicity against human BT-474 cells incubated for 48 hrs by CCK-8 reagent microplate reader assay. The assay is classed as functional, cell-based. The conditions noted are these: BT-474, 48 h. In general terms: Tetrazolium assays rely on reduction of a dye to a coloured formazan, in cell work by metabolically active cells.
The target of assay [2] is T1, CDK12/Cyclin K (Homo sapiens) (UniProt O75909+Q9NYV4). In words: Inhibition of CDK12/Cyclin K (unknown origin) at 0.1 uM preincubated for 10 mins followed by substrate and ATP addition measured after 200 mins by ADP-Glo luminescence assay relative to control. The conditions noted are these: time 210.0 min. The assay is classed as protein-complex assay.
Assay [3] addresses T1, CDK12/Cyclin K (Homo sapiens). In words: Inhibition of CDK12/Cyclin K (unknown origin) at 1 uM preincubated for 10 mins followed by substrate and ATP addition measured after 200 mins by ADP-Glo luminescence assay relative to control. It counts as protein-complex assay. The conditions noted are these: time 210.0 min.
Assay [4] has the same target. Put plainly: Inhibition of CDK12/Cyclin K (unknown origin) at 10 uM preincubated for 10 mins followed by substrate and ATP addition measured after 200 mins by ADP-Glo luminescence assay relative to control. The assay is classed as protein-complex assay. Conditions: time 210.0 min.

Sequence of CDK12/Cyclin K (O75909 whole entry): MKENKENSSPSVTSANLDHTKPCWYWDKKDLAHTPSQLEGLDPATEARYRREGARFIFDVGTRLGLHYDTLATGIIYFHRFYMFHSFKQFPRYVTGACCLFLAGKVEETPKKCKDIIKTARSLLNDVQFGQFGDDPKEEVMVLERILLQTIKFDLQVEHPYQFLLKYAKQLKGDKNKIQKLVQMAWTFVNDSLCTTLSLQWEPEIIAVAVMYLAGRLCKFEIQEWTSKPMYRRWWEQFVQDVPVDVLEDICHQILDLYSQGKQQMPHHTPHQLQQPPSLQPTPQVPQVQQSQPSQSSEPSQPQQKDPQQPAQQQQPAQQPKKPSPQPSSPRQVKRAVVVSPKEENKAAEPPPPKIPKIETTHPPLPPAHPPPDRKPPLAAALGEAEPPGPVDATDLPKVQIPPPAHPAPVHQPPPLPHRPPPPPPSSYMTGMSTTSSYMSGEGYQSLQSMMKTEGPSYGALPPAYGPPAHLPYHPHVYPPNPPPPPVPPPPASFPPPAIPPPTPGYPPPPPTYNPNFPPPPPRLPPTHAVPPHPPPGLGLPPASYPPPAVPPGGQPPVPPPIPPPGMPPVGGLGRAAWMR
Sequence of CDK12/Cyclin K (Q9NYV4 whole entry): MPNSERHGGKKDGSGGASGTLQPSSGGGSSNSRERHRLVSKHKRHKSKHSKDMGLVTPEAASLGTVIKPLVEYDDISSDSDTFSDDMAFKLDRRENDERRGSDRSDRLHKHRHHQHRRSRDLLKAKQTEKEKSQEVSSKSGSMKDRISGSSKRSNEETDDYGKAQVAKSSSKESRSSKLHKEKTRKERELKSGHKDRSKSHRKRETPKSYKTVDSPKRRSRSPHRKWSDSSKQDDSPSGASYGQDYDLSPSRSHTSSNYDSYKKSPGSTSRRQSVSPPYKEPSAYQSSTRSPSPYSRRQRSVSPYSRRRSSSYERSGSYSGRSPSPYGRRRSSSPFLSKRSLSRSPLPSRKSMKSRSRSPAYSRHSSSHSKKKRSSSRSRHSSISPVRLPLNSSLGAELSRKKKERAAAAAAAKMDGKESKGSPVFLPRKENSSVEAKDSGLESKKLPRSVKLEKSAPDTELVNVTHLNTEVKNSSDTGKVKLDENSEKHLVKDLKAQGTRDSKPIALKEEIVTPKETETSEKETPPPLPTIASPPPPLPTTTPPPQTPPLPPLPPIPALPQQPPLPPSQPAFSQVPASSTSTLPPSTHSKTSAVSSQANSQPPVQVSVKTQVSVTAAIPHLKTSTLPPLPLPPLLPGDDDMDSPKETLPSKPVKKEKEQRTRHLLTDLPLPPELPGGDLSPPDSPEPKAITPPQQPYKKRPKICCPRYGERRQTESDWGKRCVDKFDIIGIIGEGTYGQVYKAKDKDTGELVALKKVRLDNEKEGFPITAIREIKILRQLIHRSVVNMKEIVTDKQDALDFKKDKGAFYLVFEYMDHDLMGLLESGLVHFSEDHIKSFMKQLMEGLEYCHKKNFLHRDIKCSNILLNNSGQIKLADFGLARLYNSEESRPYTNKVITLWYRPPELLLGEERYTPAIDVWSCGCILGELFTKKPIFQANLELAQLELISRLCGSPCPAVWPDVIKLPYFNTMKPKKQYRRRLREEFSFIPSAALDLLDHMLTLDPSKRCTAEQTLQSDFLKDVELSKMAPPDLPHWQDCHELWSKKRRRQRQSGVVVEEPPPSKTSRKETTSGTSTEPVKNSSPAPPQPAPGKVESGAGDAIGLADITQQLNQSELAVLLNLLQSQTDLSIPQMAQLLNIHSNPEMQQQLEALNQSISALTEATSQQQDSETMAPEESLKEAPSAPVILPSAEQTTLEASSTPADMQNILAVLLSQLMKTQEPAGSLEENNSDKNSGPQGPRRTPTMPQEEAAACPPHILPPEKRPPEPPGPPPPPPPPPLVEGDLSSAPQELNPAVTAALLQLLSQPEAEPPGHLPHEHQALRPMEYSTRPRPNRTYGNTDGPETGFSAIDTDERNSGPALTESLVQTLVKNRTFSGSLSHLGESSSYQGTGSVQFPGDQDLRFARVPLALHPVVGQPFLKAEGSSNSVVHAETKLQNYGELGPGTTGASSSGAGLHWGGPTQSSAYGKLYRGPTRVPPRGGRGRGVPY
T1 sequence (O75909 whole entry, looked up): as the sequence (O75909 whole entry) above
T1 sequence (Q9NYV4 whole entry, looked up): as the sequence (Q9NYV4 whole entry) above
Sequence of Cyclin-dependent kinase 13/Cyclin-K (Q14004 whole entry): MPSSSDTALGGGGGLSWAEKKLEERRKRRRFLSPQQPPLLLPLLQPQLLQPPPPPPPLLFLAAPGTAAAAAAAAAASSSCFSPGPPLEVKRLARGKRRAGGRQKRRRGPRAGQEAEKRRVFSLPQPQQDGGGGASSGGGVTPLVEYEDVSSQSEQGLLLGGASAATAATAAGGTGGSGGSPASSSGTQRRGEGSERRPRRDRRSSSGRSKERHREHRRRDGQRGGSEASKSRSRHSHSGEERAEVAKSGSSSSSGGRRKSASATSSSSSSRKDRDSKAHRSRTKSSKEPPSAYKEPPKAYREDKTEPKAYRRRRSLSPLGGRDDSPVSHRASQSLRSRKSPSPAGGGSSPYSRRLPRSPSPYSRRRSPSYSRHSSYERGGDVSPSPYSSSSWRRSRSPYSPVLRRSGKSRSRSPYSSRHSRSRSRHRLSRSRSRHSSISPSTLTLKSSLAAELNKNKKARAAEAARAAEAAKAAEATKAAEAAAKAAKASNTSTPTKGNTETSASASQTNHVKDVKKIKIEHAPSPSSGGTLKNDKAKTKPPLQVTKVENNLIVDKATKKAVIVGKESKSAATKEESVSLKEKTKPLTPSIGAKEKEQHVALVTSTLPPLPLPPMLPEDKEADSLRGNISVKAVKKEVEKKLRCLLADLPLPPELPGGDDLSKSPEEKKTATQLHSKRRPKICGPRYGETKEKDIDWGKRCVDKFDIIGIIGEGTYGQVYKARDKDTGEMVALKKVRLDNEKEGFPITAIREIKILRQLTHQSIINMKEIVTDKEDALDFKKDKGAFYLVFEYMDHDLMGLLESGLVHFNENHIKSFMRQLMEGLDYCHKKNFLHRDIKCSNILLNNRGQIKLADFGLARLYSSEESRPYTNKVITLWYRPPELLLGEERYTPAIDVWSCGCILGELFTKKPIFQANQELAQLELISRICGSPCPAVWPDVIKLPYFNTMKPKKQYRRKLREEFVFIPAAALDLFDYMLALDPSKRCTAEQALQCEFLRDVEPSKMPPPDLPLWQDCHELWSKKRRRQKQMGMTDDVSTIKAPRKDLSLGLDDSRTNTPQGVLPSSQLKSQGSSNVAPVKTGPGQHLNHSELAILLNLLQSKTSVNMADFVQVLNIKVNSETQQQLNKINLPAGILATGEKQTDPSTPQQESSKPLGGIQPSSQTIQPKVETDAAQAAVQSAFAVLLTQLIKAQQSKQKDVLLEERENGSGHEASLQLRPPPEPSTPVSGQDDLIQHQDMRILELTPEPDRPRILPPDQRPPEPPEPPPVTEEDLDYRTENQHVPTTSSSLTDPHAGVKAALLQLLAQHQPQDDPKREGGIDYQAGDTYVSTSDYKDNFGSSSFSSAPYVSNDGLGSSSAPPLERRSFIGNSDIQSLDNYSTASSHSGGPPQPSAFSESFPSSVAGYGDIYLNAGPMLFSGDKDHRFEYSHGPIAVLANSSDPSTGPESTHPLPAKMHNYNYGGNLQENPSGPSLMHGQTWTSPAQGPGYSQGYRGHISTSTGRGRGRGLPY
Sequence of Cyclin-dependent kinase 13/Cyclin-K (O75909 whole entry, further chain): as the sequence (O75909 whole entry) above

For `NCCCNc1ccc(Nc2nccc(Nc3cc(C4CC4)[nH]n3)n2)cc1`, the half-maximal inhibitory concentration (IC50) worked out at 154 nM in assay [1], 260 nM against CDK12/Cyclin K and 9110 nM in the assay with BT-474.
With `CN1CCN(Cc2ccc(NC(=O)c3n[nH]cc3Nc3ncnc4[nH]ccc34)cc2)CC1`, the half-inhibitory concentration (IC50) in assay [1] worked out at 187 nM; against CDK12/Cyclin K, 183 nM; in the assay on BT-474, 23900 nM.
Consider `Cn1cc(C2=C(c3cn(CCCSC(=N)N)c4ccccc34)C(=O)NC2=O)c2ccccc21` [BISINDOLYLMALEIMIDE IX], for which the IC50 in assay [1] came out at 206 nM; on CDK12/Cyclin K, 143 nM.
For `Cn1ncc(-c2nc(N[C@H]3CC[C@H](N)CC3)ncc2F)c1CC1CC1`, the IC50 in assay [1] was 21.5 nM; at CDK12/Cyclin K it was 53 nM; with BT-474, 11300 nM.
For the molecule `C=CC(=O)Nc1cccc(Nc2cc(N3CCCC[C@H]3CCO)nc3c(CC)cnn23)c1`, the IC50 in assay [1] amounted to 29.3 nM; against CDK12/Cyclin K, 74.4 nM; in the assay with BT-474, 490 nM.
For `CN(C)C/C=C/C(=O)Nc1ccc(C(=O)N2CCC[C@@H](Nc3ncc(Cl)c(-c4c[nH]c5ccccc45)n3)C2)cc1`, the inhibition in assay [2] is 98.7%; in assay [3], 96.7%; in assay [4], 33%. Also, the half-inhibitory concentration (IC50) in assay [1] was found to be 40 nM; on CDK12/Cyclin K, 152 nM.
On to `COc1cc(F)ccc1-c1cc(Nc2cc(C[S@@](C)(=N)=O)ccn2)ncc1F`, for which the results for the IC50 against CDK12/Cyclin K and in the assay on BT-474 were 425 nM and 853 nM, respectively.
Consider `O=C1CC[C@@H](N2C(=O)c3cccc(OCCCCCOc4ccc(CC(=O)Nc5cc(C6CCC6)[nH]n5)cc4)c3C2=O)C(=O)N1`, for which the figures for the IC50 at CDK12/Cyclin K and in the assay on BT-474 were 749 nM and 42300 nM, respectively.
On to `Cc1cc(O)c(-c2ccc([C@@H](C)CN)cc2)c2c1[nH]c(=O)c1sccc12`, for which the IC50 with BT-474 amounted to 6260 nM.

One may read the IC50 as the concentration that gives 50% inhibition. For orientation: inhibition means the change of the read-out against control, counted positive when it falls.

The record behind these values is ChEMBL document CHEMBL5335776, “Development, validation, and evaluation of a deep learning model to screen cyclin-dependent kinase 12 inhibitors in cancers” (Eur J Med Chem, 2023).
